Values of other authors, collected in US8512311B2, “Augmentation of intraluminal microvessel formation to facilitate guide wire crossing in chronic total occlusions” (priority 2004, dated 2013).

Test system: venous thrombi
Conditions: injection into venous thrombi, rat model, compared to controls

Substance: vascular endothelial growth factor [VEGF protein]
- increase in thrombus recanalization: two-fold
